Assay results reported in the NIST ThermoML archive (doi:10.1021/je025655p).
Numbers after ± are expanded uncertainties.

Conditions: 101.33 kPa, Liquid; for viscosity: Capillary tube (Ostwald / Ubbelohde) method; for speed of sound: Sing-around technique in a fixed-path interferometer; for mass density: Vibrating tube method

viscosity (283.15 K) [mPa·s]	speed of sound (283.15 K) [m/s]	mass density (283.15 K) [kg/m3]	viscosity (298.15 K) [mPa·s]	speed of sound (298.15 K) [m/s]	mass density (298.15 K) [kg/m3]	viscosity (313.15 K) [mPa·s]	speed of sound (313.15 K) [m/s]	mass density (313.15 K) [kg/m3]	Structure (SMILES)
1.005 ± 0.0098	1335.8 ± 1.6	894.08 ± 0.46	0.8005 ± 0.0081	1255 ± 1.6	879.18 ± 0.45	0.6494 ± 0.0067	1199.8 ± 1.6	864.37 ± 0.45	C1CCOCC1 [tetrahydropyran]
2.693 ± 0.023	872.3 ± 1.2	1407.89 ± 0.21	1.755 ± 0.017	826.7 ± 1.1	1382.44 ± 0.2	1.208 ± 0.012	791.7 ± 1.1	1356.91 ± 0.19	OCC(F)(F)F [2,2,2-trifluoroethanol]
